# Measured values reported in paper PMC3538728 (PLoS ONE, 2013).
# Several values for one entry are separate records, joined by “and”; a condition that tells them apart may be missing. Identical values can stand only once. Like-named read-outs stand apart in the source and are kept apart here.
# Molecular target: T1, γ-secretase (Homo sapiens, UniProt P49768)
# T1 construct: γ-Secretase is composed of four subunits: Aph1, Pen2, glycosylated nicastrin, and endo-proteolyzed presenilin as the catalytic core; endogenous in cells; host or cells: HeLa S3 (ATCC CCL-2.2)
# T1 sequence (Q9NZ42 whole entry, other chains not shown): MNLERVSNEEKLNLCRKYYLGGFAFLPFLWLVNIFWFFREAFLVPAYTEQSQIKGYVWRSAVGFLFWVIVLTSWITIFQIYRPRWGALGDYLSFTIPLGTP
# T1 sequence (Q92542 34-709, other chains not shown, further chain): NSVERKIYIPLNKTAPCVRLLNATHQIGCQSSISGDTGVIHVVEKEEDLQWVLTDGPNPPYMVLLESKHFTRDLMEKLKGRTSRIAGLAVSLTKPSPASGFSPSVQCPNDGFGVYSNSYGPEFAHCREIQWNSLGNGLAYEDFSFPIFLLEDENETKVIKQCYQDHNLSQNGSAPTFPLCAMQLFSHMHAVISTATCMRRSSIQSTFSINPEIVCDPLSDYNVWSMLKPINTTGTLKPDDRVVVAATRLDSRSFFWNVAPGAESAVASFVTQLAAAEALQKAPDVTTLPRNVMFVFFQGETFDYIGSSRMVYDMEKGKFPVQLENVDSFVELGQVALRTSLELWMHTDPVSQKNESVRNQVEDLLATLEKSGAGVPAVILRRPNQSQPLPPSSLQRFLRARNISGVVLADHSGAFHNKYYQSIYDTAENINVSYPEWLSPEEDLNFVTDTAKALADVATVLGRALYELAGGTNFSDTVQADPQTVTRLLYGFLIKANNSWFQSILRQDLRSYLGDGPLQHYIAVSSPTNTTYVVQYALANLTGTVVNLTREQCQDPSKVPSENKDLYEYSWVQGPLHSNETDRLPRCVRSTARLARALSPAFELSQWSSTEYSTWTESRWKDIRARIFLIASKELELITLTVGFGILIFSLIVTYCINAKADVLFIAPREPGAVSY
# T1 sequence (Q96BI3 whole entry, other chains not shown, further chain): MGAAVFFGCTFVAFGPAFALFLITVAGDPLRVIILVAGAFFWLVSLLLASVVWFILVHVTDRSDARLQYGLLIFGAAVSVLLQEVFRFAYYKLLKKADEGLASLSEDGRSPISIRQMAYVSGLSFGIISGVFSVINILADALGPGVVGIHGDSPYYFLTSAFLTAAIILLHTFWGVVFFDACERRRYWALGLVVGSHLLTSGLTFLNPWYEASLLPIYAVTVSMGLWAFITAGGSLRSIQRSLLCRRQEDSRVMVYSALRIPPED
# Assay: Aβ 1–40 secretion from HeLa cells in the presence of DAPT (sandwich ELISA), dose-response fits
# Assay type: cell-based
# Details: for EC50: read-out: Activation EC50; for IC50: read-out: Inhibition IC50; for Maximal Activity that can be achieved by transfection (Aβ 1-40 secreted): HeLa transfected with cDNAwtC99
# Excerpt: HeLa cells have been transfected using Lipofectamine LTX™ reagent following the manufacturer instructions. The transfection protocol and concentration of pSG5-cDNAwtC99 plasmid have been optimized to achieve desired assay sensitivity, a gradual increase in the substrate expression level, and a smooth transition from biphasic to the standard dose-response curves (Figs. 2–3). Initially concentration of pSG5-cDNAwtC99 plasmid have been optimized by western blots using anti-flag αM2 monoclonal antibody as described in our previous study. The cells were transfected in 24-well plates. The day before transfection the cells were trypsinized and counted. About 0.85×10^5 cells were seeded per well in 0.5 ml of complete growth medium to achieve about 75% confluent cultures on the day of transfection. Before the transfection old medium was removed and replaced with fresh 0.5 ml of complete growth medium. For transfection 5X DNA concentration was diluted in 500 µl of Opti-MEM®I Reduced Serum Media and mixed with 0.7 µl of Lipofectamine LTX™ Reagent. The solution was gently mixed and incubated for 30 minutes at room temperature to form DNA- Lipofectamine LTX™ Reagent complexes. Following the 30 min incubation, 100 µl of the DNA- Lipofectamine LTX™ Reagent complexes was added directly to each well containing cells and mixed gently by rocking the plate back and forth. The cells were incubated at 37°C in a CO2 incubator for 18 hours.
# Fresh medium was added 18 hours after the transfection (0.5 ml per well), to prepare the cells for incubation with DAPT [18], [51]. Different concentrations of DAPT were prepared in DMSO, and added to the cells so that the final DMSO concentration in the culture was 0.1% (v/v). DMSO vehicle represents 0 nM DAPT. The cells were incubated with DAPT at given concentrations for 15 hours.
# The assay linear response is in the range from 6–125 pM of Aβ 1–40. The assays were performed by closely following the manufacturer instructions. […] Each well was filled with 50 µl of the antibody conjugate solution and 50 µl of sample. The Aβ 1–40 standards were supplied by the manufacturer and prepared in parallel with other samples. All of the prepared wells were wrapped in aluminum foil and incubated overnight at 4°C with gentle mixing. The next day each well was washed five times with 300 µl of wash solution. After each […] wash, the wash solution was poured out and the wells were dried by tapping the plates on an absorbing paper. Washed wells were filled with 100 µl of the enzyme conjugate solution, covered, and incubated for 30 min at room temperature with shaking. The washing procedure was repeated once again to remove excess of the enzyme-conjugate. Next 100 µl of the substrate solution was added in each well in dark, and kept for 30 minutes covered at room temperature. The reaction was quenched by adding 50 µl of stop solution to each well, and within 15 min the signal intensity was read by measuring absorption at 450 nm.
# All experimental results were analyzed using MicroCal Origin 7.0 program, nonlinear regressions, and equations that represent specific mechanism. All results are reported as the best fit value ± standard error with two-sigma confidence intervals shown in square brackets (i.e. x±y [p, q]). Briefly, the standard error indicates random errors (i.e. precision) for each method, while the two sigma confidence intervals indicate the ability of given experimental setup to provide information about specific best-fit parameter. The random error for presented experiments is low, as indicated by a low scatter from the best fit values. The sharp confidence intervals can be obtained by taking a large number of independent data points that cover all segments that define the measured functions. […]
# [1] = Aβ 1-40 secreted, untransfected HeLa cells, eqn. 1, six free fit parameters
# [2] = Aβ 1-40 secretion, untransfected HeLa cells, eqn. 1, six free fit parameters
# [3] = HeLa, 0 ng/mL pSG5-cDNAwtC99, eqn. 1
# [4] = HeLa, 15 ng/mL pSG5-cDNAwtC99, eqn. 1
# [5] = HeLa, 25 ng/mL pSG5-cDNAwtC99, eqn. 1
# [6] = HeLa, 61 ng/mL pSG5-cDNAwtC99, eqn. 1
# [7] = HeLa, 92 ng/mL pSG5-cDNAwtC99, eqn. 1
compound,measurement,setting,value
"C[C@H](NC(=O)Cc1cc(F)cc(F)c1)C(=O)N[C@H](C(=O)OC(C)(C)C)c1ccccc1 [DAPT, N-[N-(3,5-difluorophenacetyl)-L-alanyl]-S-phenylglycine t-butyl ester]",Endogenous activity as percentage of maximal activity achieved by transfection,33 nM DAPT,40% and 39.7%
same,cDNAwtC99 required to reach maximal activity,33 nM DAPT,192 ng/mL and 191.0 ng/mL
same,Endogenous activity as percentage of maximal activity achieved by transfection,100 nM DAPT,72% and 72.5%
same,cDNAwtC99 required to reach maximal activity,100 nM DAPT,92.7 ng/mL
same,Endogenous activity as percentage of maximal activity achieved by transfection,333 nM DAPT,92.1%
same,cDNAwtC99 required to reach maximal activity,333 nM DAPT,59.8 ng/mL
same,Endogenous activity as percentage of maximal activity achieved by transfection,500 nM DAPT,89.3%
same,cDNAwtC99 required to reach maximal activity,500 nM DAPT,39.2 ng/mL
same,Endogenous activity as percentage of maximal activity achieved by transfection,1000 nM DAPT,96.2%
same,cDNAwtC99 required to reach maximal activity,1000 nM DAPT,14.0 ng/mL
same,"Initial Activity, IA","Aβ 1-40 secreted, untransfected HeLa cells, endogenous substrate, activity at inhibitor concentration zero, eqn. 1, six free fit parameters",31 ± 4 pM per 10^6 cells
same,"Maximal Activity (MA), calculated activation plateau",[1],196 pM per 10^6 cells and 196 ± 80 pM per 10^6 cells
same,"Maximal Inhibition, MI",[1],0.5 ± -3.4 pM per 10^6 cells
same,EC50,[2],72 ± 20 nM
same,IC50,[2],472 ± 95 nM
same,Maximal Activity that can be achieved by transfection (Aβ 1-40 secreted),33 nM DAPT,204.5 pM per 10^6 cells
same,Maximal Activity that can be achieved by transfection (Aβ 1-40 secreted),100 nM DAPT,182 pM per 10^6 cells and 182.0 pM per 10^6 cells
same,Maximal Activity that can be achieved by transfection (Aβ 1-40 secreted),333 nM DAPT,140.0 pM per 10^6 cells
same,Maximal Activity that can be achieved by transfection (Aβ 1-40 secreted),500 nM DAPT,125.0 pM per 10^6 cells
same,Maximal Activity that can be achieved by transfection (Aβ 1-40 secreted),1000 nM DAPT,44.7 pM per 10^6 cells
same,Activation Hill coef.,[3],1.04 ± 0.2
same,Inhibition Hill's coef,[3],2 ± 0.3
same,"Maximal Activity, MA",[3],217 ± 110 pM per 10^6 cells
same,"Maximal Inhibition, MI",[3],-1 ± 0.1 pM per 10^6 cells
same,"Initial Activity, IA","HeLa, 0 ng/mL pSG5-cDNAwtC99, eqn. 1, activity at zero DAPT",32 ± 3 pM per 10^6 cells
same,EC50,[3],89 ± 17 nM
same,IC50,[3],407 ± 34 nM
same,Activation Hill coef.,[4],1.08 ± 0.2
same,Inhibition Hill's coef,[4],2.4 ± 0.3
same,"Maximal Activity, MA",[4],172 ± 90 pM per 10^6 cells
same,"Maximal Inhibition, MI",[4],0.33 ± 0.7 pM per 10^6 cells
same,"Initial Activity, IA","HeLa, 15 ng/mL pSG5-cDNAwtC99, eqn. 1, activity at zero DAPT",41 ± 3 pM per 10^6 cells
same,EC50,[4],71 ± 21 nM
same,IC50,[4],588 ± 35 nM
same,Activation Hill coef.,[5],1.0 ± 0.1
same,Inhibition Hill's coef,[5],2.2 ± 0.4
same,"Maximal Activity, MA",[5],205 ± 80 pM per 10^6 cells
same,"Maximal Inhibition, MI",[5],-0.2 ± 0.1 pM per 10^6 cells
same,"Initial Activity, IA","HeLa, 25 ng/mL pSG5-cDNAwtC99, eqn. 1, activity at zero DAPT",51 ± 5 pM per 10^6 cells
same,EC50,[5],110 ± 34 nM
same,IC50,[5],524 ± 71 nM
same,Activation Hill coef.,[6],1.13 ± 0.6
same,Inhibition Hill's coef,[6],2.3 ± 0.5
same,"Maximal Activity, MA",[6],180 ± 145 pM per 10^6 cells
same,"Maximal Inhibition, MI",[6],1.2 ± 0.2 pM per 10^6 cells
same,"Initial Activity, IA","HeLa, 61 ng/mL pSG5-cDNAwtC99, eqn. 1, activity at zero DAPT",91 ± 6 pM per 10^6 cells
same,EC50,[6],107 ± 36 nM
same,IC50,[6],489 ± 62 nM
same,Activation Hill coef.,[7],0.92 ± 0.3
same,Inhibition Hill's coef,[7],1.7 ± 0.6
same,"Maximal Activity, MA",[7],170 ± 95 pM per 10^6 cells
